The values that follow come from ChEMBL document CHEMBL2429745, “Identification of a new class of glucokinase activators through structure-based design” (J Med Chem, 2013).

The source made the active and inactive calls. The rule behind the calls is not given here.

Tested on in the first series: not listed separately
Description: Terminal plasma concentration in C57BL/6J mouse at 50 mg/kg, po administered 30 mins measured after 2.5 hrs. The class given is ADME, organism-based. More on the design: dose 50 mg/kg, route oral. The following applies: read-out: Cp(T).
As for `CC(C)c1csc(Nc2ncc(SCCn3ccnc3)cc2OCc2ccccc2)n1`, the concentration at 2.5 h came to 4500 ng/mL.

The test system of a further series is Mus musculus. Description: Toxicity in C57BL/6J mouse assessed as induction of hypoglycemia at 50 mg/kg, po administered 30 mins prior to glucose challenge measured over 2 hrs. The class given is organism-based. The arrangement: dose 50 mg/kg, route oral. The following applies: in vivo.
Turning to `CC(C)c1csc(Nc2ncc(SCCn3ccnc3)cc2OCc2ccccc2)n1`, the Activity result is listed as “Non-toxic”.

The target of the next series is T1, Hexokinase-4 (Homo sapiens, UniProt P35557).
T1 sequence (P35557 whole entry): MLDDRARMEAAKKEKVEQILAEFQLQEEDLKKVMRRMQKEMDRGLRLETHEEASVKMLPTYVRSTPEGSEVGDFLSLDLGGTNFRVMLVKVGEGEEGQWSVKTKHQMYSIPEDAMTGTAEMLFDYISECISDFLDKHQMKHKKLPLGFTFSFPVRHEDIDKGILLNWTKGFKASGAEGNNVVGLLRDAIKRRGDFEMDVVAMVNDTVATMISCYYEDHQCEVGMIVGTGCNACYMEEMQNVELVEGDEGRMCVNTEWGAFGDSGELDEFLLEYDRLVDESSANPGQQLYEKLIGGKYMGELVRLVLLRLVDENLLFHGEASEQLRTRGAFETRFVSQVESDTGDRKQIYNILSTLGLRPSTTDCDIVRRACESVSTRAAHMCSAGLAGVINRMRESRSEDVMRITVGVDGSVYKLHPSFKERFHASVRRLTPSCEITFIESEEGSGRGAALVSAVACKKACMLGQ
In words: Allosteric activation of human glucokinase using glucose as substrate measured every 10 secs for 5 mins.
Settings: not given
The EC50 is the concentration needed to bring the measured effect to its halfway point. Take `Cc1csc(Nc2ncc(Cl)cc2OCc2ccccc2)n1`: a half-maximal effect (EC50) was put at 796 nM.

The compound `Cc1csc(Nc2ncccc2OCc2ccccn2)n1` yielded an EC50 of 12300 nM.

The compound `Cc1csc(Nc2ncccc2OCc2cccnc2)n1` displayed a concentration giving a half-maximal response (EC50) of 7780 nM.

`Cc1csc(Nc2ncccc2OCc2cccc(O)c2)n1`: a half-maximal effect (EC50) was put at 3440 nM.

`COc1cccc(COc2cccnc2Nc2nc(C)cs2)c1` came in with an EC50 of 3220 nM.

Consider `Cc1csc(Nc2ncc(SCCn3ccnc3)cc2OCc2ccccc2)n1`, for which a half-maximal effect (EC50) was put at 325 nM.

Take `Cc1csc(Nc2ncccc2OCc2cccc3cccnc23)n1`: the midpoint of the response, the EC50, lay at 1700 nM.

`CC(C)c1csc(Nc2ncc(Br)cc2OCc2ccccc2)n1` had an EC50 of 240 nM.

In turn, `CCc1csc(Nc2ncc(Br)cc2OCc2ccccc2)n1` registered an EC50 of 562 nM.

Compound `Cc1csc(Nc2ncc(SCc3ccccn3)cc2OCc2ccccc2)n1` displayed an EC50 of 77 nM.

For the compound `Cc1csc(Nc2ncc(Sc3ccccn3)cc2OCc2ccccc2)n1`, it took 231 nM to reach a half-maximal effect (EC50).

Turning to `Cc1csc(Nc2ncc(Sc3ccccc3)cc2OCc2ccccc2)n1`, the EC50 was 208 nM.

`CC(C)Cc1csc(Nc2ncc(Br)cc2OCc2ccccc2)n1`: the EC50 worked out at 356 nM.

`Cc1csc(Nc2ncc(Br)cc2OCc2ccccc2)n1` displayed an EC50 of 687 nM.

The compound `Cc1csc(Nc2ncc(SCc3ccccc3)cc2OCc2ccccc2)n1` registered an EC50 of 235 nM.

A further series has as its system Mus musculus. Description: Antidiabetic activity in C57BL/6J mouse assessed as reduction of glucose excursion at 50 mg/kg, po administered 30 mins prior to glucose challenge measured over 2 hrs by OGTT. The class given is functional, organism-based. More on the design: dose 50 mg/kg.
Settings: not given
With `CC(C)c1csc(Nc2ncc(SCCn3ccnc3)cc2OCc2ccccc2)n1`, the outcome was Active.

The next series concerns Rattus norvegicus. Description: Antidiabetic activity in high fat-fed Zucker diabetic fatty rat assessed as decrease in blood glucose AUC at 50 mg/kg, po after 21 days on high-fat diet measured for 2 hrs post dose by OGTT relative to control. The arrangement: scale not given: the % may be the effect or the level left.
Settings: not given
Take `CC(C)c1csc(Nc2ncc(SCCn3ccnc3)cc2OCc2ccccc2)n1`: the Activity was 23%.

`N#C[C@@H]1CCCN1C(=O)CNC12CC3CC(CC(O)(C3)C1)C2` [VILDAGLIPTIN]: the Activity worked out at 24%.
